Laboratory results from the supplement of paper PMC11061612.

Assays:
Assay in all cases: Bliss excess, mean over the matrix (fraction); higher = more synergy
[1] = tested on: ESO51 (Esophageal Adenocarcinoma)
Procedure, shortened: (§1)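 Cell lines grown in DMEM/F12 or RPMI with 10% FBS were plated in 1536-well plates and held 24 hours at 37°C, 5% CO2 before 72 hours of exposure to two-drug dose matrices, with DMSO typically at 0.2%. CellTiter-Glo 2.0 luminescence gave viability, which was converted to inhibition. Vehicle wells were set to 0 and blank wells to 1. Combination Emax is the second-highest inhibition in the matrix, and Bliss excess is the observed combination effect minus the expected EA + EB − EA·EB, where EA and EB are the single-agent effects.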

[2] = tested on: SK-GT-2 (Gastric Carcinoma)
Procedure, shortened: as §1

[3] = tested on: NCI-H526 (Small Cell Lung Carcinoma)
Procedure, shortened: as §1

[4] = tested on: CW-2 (Colorectal Carcinoma)
Procedure, shortened: as §1

[5] = tested on: KP-3 (Pancreatic Carcinoma)
Procedure, shortened: as §1

[6] = tested on: NCI-H929 (Plasma Cell Myeloma)
Procedure, shortened: as §1

G-361 (Melanoma) = tested on: G-361 (Melanoma)
Procedure, shortened: as §1

[7] = tested on: PC-3 (Prostate Carcinoma)
Procedure, shortened: as §1

[8] = tested on: NCI-H520 (Squamous Cell Lung Carcinoma)
Procedure, shortened: as §1

[9] = tested on: SUP-B15 (B-Lymphoblastic Leukemia)
Procedure, shortened: as §1

[10] = tested on: 8505C (Thyroid Gland Carcinoma)
Procedure, shortened: as §1

[11] = tested on: NCI-H661 (Non-Small Cell Lung Carcinoma)
Procedure, shortened: as §1

[12] = tested on: CHSA8926 (Chondrosarcoma)
Procedure, shortened: as §1

[13] = tested on: ST486 (Burkitt's Lymphoma)
Procedure, shortened: as §1

[14] = tested on: KY821 (Acute Myeloid Leukemia)
Procedure, shortened: as §1

NCI-H2731 (Mesothelioma) = tested on: NCI-H2731 (Mesothelioma)
Procedure, shortened: as §1

[15] = tested on: HCC1187 (Breast Carcinoma)
Procedure, shortened: as §1

[16] = tested on: SNU-398 (Hepatocellular Carcinoma)
Procedure, shortened: as §1

[17] = tested on: KMS-12-BM (Plasma Cell Myeloma)
Procedure, shortened: as §1

[18] = tested on: NCI-H3122 (Lung Adenocarcinoma)
Procedure, shortened: as §1

Row | SMILES | Bliss excess [1] | Bliss excess [2] | Bliss excess [3] | Bliss excess [4] | Bliss excess [5] | Bliss excess [6] | Bliss excess (G-361 (Melanoma)) | Bliss excess [7] | Bliss excess [8] | Bliss excess [9] | Bliss excess [10] | Bliss excess [11] | Bliss excess [12] | Bliss excess [13] | Bliss excess [14] | Bliss excess (NCI-H2731 (Mesothelioma)) | Bliss excess [15] | Bliss excess [16] | Bliss excess [17] | Bliss excess [18]
1 | CCN(CCO)CCCOc1ccc2c(Nc3cc(CC(=O)Nc4cccc(F)c4)[nH]n3)ncnc2c1 [AZD2811] + C[C@@H]1COCCN1C2=NC(=NC(=C2)C3(CC3)[S@](=N)(=O)C)C4=C5C=CNC5=NC=C4 [AZD6738] (first compound max 1 µM, 7x7, partner max 10 µM) | -0.0567 | -0.0272 | -0.0178 | -0.0116 | -0.0582 | -0.0341 | -0.0875 | -0.061 | -0.0834 | -0.0468 | -0.0514 | -0.0567 | -0.0037 | -0.0205 | 0.105 | -0.0668 | -0.0841 | 0.007 | 0.0141 | -0.063
2 | CCN(CCO)CCCOc1ccc2c(Nc3cc(CC(=O)Nc4cccc(F)c4)[nH]n3)ncnc2c1 [AZD2811] + O=C(c1cc(Cc2n[nH]c(=O)c3ccccc23)ccc1F)N1CCN(C(=O)C2CC2)CC1 [Olaparib] (first compound max 1 µM, 7x7, partner max 10 µM) | -0.0379 | 0.0218 | 0.0486 | 0.0119 | -0.0484 | 0.0305 | -0.0295 | -0.0231 | 0.041 | -0.0227 | -0.0228 | -0.0062 | 0.0124 | -0.0464 | 0.0512 | 0.0001 | -0.0668 | -0.0223 | 0.0456 | 0.0018
3 | CN(CCO)CC[C@H](CSc1ccccc1)Nc1ccc(S(=O)(=O)NC(=O)c2ccc(N3CCC([C@@H](O)c4ccccc4-c4ccc(Cl)cc4)CC3)cc2)cc1S(=O)(=O)C(F)(F)F [AZD4320] + C1CN(CCC1(C(=O)N[C@@H](CCO)C2=CC=C(C=C2)Cl)N)C3=NC=NC4=C3C=CN4 [Capivasertib] (first compound max 1 µM, 7x7, partner max 3 µM) | -0.0434 | -0.0158 | -0.0075 | -0.0284 | -0.0438 | -0.0088 | -0.0244 | -0.053 | -0.0637 | -0.0203 | -0.155 | -0.0347 | -0.0059 | -0.0345 | 0.0157 | -0.0435 | -0.0276 | -0.032 | 0.0181 | -0.0613
4 | CN(CCO)CC[C@H](CSc1ccccc1)Nc1ccc(S(=O)(=O)NC(=O)c2ccc(N3CCC([C@@H](O)c4ccccc4-c4ccc(Cl)cc4)CC3)cc2)cc1S(=O)(=O)C(F)(F)F [AZD4320] + C=CCn1c(=O)c2cnc(Nc3ccc(N4CCN(C)CC4)cc3)nc2n1-c1cccc(C(C)(C)O)n1 [AZD1775] (first compound max 1 µM, partner max 1 µM) | 0.0693 | 0.0322 | 0.0367 | 0.0032 | -0.0417 | -0.0219 | 0.0539 | -0.0525 | -0.0444 | 0.0733 | 0.0033 | -0.0018 | 0.102 | -0.0447 | -0.0117 | -0.0106 | -0.0064 | -0.0291 | 0.0716 | -0.0108
5 | CN(CCO)CC[C@H](CSc1ccccc1)Nc1ccc(S(=O)(=O)NC(=O)c2ccc(N3CCC([C@@H](O)c4ccccc4-c4ccc(Cl)cc4)CC3)cc2)cc1S(=O)(=O)C(F)(F)F [AZD4320] + CCN(CCO)CCCOc1ccc2c(Nc3cc(CC(=O)Nc4cccc(F)c4)[nH]n3)ncnc2c1 [AZD2811] (first compound max 1 µM, 7x7, partner max 1 µM) | 0.0025 | 0.026 | 0.105 | -0.0073 | -0.0476 | -0.0119 | 0.0679 | -0.0127 | 0.0077 | 0.0255 | 0.0545 | -0.0322 | 0.0873 | -0.0097 | 0.162 | -0.005 | -0.0032 | -0.0135 | 0.0816 | -0.0456
6 | CN(CCO)CC[C@H](CSc1ccccc1)Nc1ccc(S(=O)(=O)NC(=O)c2ccc(N3CCC([C@@H](O)c4ccccc4-c4ccc(Cl)cc4)CC3)cc2)cc1S(=O)(=O)C(F)(F)F [AZD4320] + CN(C)CCCOc1ccc(-c2ccc3ncc4c(c3c2)n(C2CCOCC2)c(=O)n4C)cn1 [AZD0156] (first compound max 1 µM, 7x7, partner max 1 µM) | -0.0095 | 0.0006 | -0.0092 | -0.007 | -0.0462 | -0.0267 | 0.001 | -0.0266 | -0.0185 | -0.0535 | -0.0014 | -0.0232 | -0.0797 | -0.0086 | 0.002 | -0.0485 | 0.0062 | -0.0009 | 0.0211 | -0.0486
7 | CN(CCO)CC[C@H](CSc1ccccc1)Nc1ccc(S(=O)(=O)NC(=O)c2ccc(N3CCC([C@@H](O)c4ccccc4-c4ccc(Cl)cc4)CC3)cc2)cc1S(=O)(=O)C(F)(F)F [AZD4320] + C[C@@H]1COCCN1C2=NC(=NC(=C2)C3(CC3)[S@](=N)(=O)C)C4=C5C=CNC5=NC=C4 [AZD6738] (first compound max 1 µM, 7x7, partner max 10 µM) | -0.0203 | 0.0109 | -0.0302 | -0.0321 | -0.042 | -0.0097 | -0.0395 | -0.0367 | -0.0547 | 0.0245 | -0.0298 | -0.0197 | -0.011 | -0.0502 | -0.0241 | -0.0178 | -0.0209 | -0.0452 | 0.0012 | -0.0965
8 | CN(CCO)CC[C@H](CSc1ccccc1)Nc1ccc(S(=O)(=O)NC(=O)c2ccc(N3CCC([C@@H](O)c4ccccc4-c4ccc(Cl)cc4)CC3)cc2)cc1S(=O)(=O)C(F)(F)F [AZD4320] + C[C@@H](Nc1cc(F)cc(F)c1)c1cc(C(=O)N(C)C)cc2c(=O)cc(N3CCOCC3)oc12 [AZD8186] (first compound max 1 µM, 7x7, partner max 3 µM) | 0.0996 | 0.0296 | 0.0434 | -0.0073 | 0.0002 | -0.0036 | 0.027 | 0.057 | 0.0618 | 0.0179 | 0.0411 | 0.0424 | 0.0889 | 0.0176 | 0.0053 | 0.0288 | 0.0582 | 0.0201 | 0.0652 | 0.0005
9 | CN(CCO)CC[C@H](CSc1ccccc1)Nc1ccc(S(=O)(=O)NC(=O)c2ccc(N3CCC([C@@H](O)c4ccccc4-c4ccc(Cl)cc4)CC3)cc2)cc1S(=O)(=O)C(F)(F)F [AZD4320] + Cc1cc2ncnn2cc1Nc1ncc2c(n1)n(C1CCOCC1)c(=O)n2C [AZD7648] (first compound max 1 µM, 7x7, partner max 10 µM) | -0.0168 | -0.0034 | -0.0069 | -0.006 | -0.0471 | 0.0134 | -0.0444 | -0.0432 | -0.0691 | -0.0072 | -0.0315 | -0.0289 | 0.0101 | -0.0066 | 0.0393 | -0.0424 | -0.025 | -0.0291 | 0.0317 | -0.0676
10 | CN(CCO)CC[C@H](CSc1ccccc1)Nc1ccc(S(=O)(=O)NC(=O)c2ccc(N3CCC([C@@H](O)c4ccccc4-c4ccc(Cl)cc4)CC3)cc2)cc1S(=O)(=O)C(F)(F)F [AZD4320] + Cn1cnc2c(F)c(Nc3ccc(Br)cc3Cl)c(C(=O)NOCCO)cc21 [Selumetinib] (first compound max 1 µM, 7x7, partner max 3 µM) | 0.0355 | 0.0177 | -0.0061 | 0.0454 | 0.0111 | 0.0597 | 0.028 | -0.0148 | -0.0205 | 0.0853 | 0.0641 | 0.0414 | -0.0256 | 0.0086 | 0.0262 | -0.0124 | 0.0264 | 0.0783 | -0.024 | 0.0162
11 | COc1nnc2ccc(N3CCC(c4ccc(OCCN5CCN(C)C(=O)[C@H]5C)cc4)CC3)nn12 [AZD5153] + C=CCn1c(=O)c2cnc(Nc3ccc(N4CCN(C)CC4)cc3)nc2n1-c1cccc(C(C)(C)O)n1 [AZD1775] (first compound max 1 µM, partner max 1 µM) | -0.0594 | -0.0008 | -0.0252 | 0.0072 | 0.0038 | -0.0551 | -0.0271 | -0.0118 | -0.0115 | 0.0252 | 0.0074 | -0.019 | 0.0085 | -0.0492 | -0.0266 | 0.0147 | -0.0172 | -0.0315 | -0.0243 | -0.0461
12 | COc1nnc2ccc(N3CCC(c4ccc(OCCN5CCN(C)C(=O)[C@H]5C)cc4)CC3)nn12 [AZD5153] + CC1(C)CCC(CN2CCN(c3ccc(C(=O)NS(=O)(=O)c4ccc(NCC5CCOCC5)c([N+](=O)[O-])c4)c(Oc4cnc5[nH]ccc5c4)c3)CC2)=C(c2ccc(Cl)cc2)C1 [Venetoclax] (first compound max 1 µM, 7x7, partner max 1 µM) | -0.0346 | -0.028 | 0.0192 | -0.0642 | -0.0399 | 0.0001 | -0.0649 | -0.109 | -0.0179 | 0.0051 | -0.07 | -0.0574 | -0.0287 | -0.0493 | -0.0376 | -0.085 | -0.0462 | -0.126 | 0.0033 | -0.0372
13 | COc1nnc2ccc(N3CCC(c4ccc(OCCN5CCN(C)C(=O)[C@H]5C)cc4)CC3)nn12 [AZD5153] + CCN(CCO)CCCOc1ccc2c(Nc3cc(CC(=O)Nc4cccc(F)c4)[nH]n3)ncnc2c1 [AZD2811] (first compound max 1 µM, 7x7, partner max 1 µM) | -0.0152 | -0.0314 | -0.0332 | -0.0525 | -0.0359 | -0.0026 | -0.0432 | -0.0257 | 0.0242 | -0.028 | 0.03 | -0.0318 | -0.035 | -0.0647 | 0.0574 | -0.0294 | -0.0934 | -0.0495 | 0.0641 | -0.0217
